The source of these data is patent publication US20030060485A1, “(+)-norcisapride” (priority 1997, published 2003).

One series deals with T1, 5-HT3 receptor (Cavia porcellus, UniProt O70212).
T1 construct: from tissue; host or cells: guinea-pig ileum segments in organ bath
T1 sequence (O70212 24-490 limits assumed): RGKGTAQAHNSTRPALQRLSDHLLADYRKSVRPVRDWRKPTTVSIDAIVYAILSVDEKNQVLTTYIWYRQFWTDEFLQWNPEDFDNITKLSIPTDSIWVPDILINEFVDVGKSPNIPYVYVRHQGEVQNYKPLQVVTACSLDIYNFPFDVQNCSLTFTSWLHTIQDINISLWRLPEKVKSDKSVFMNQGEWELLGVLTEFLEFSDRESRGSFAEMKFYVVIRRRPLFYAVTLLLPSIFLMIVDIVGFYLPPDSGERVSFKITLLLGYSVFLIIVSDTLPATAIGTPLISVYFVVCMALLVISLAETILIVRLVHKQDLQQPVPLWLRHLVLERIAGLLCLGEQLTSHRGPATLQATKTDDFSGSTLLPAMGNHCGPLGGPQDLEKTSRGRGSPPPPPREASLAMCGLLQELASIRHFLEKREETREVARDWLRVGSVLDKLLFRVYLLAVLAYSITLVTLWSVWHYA
In words: 5-hydroxykynuramine antagonism on the guinea-pig ileum. The following applies: guinea-pig ileum segments; 5-OH-K 3.10^-6 M; read-out: IC50 reducing the 5-OH-K induced effect by 50%. The format is cell-based, Guinea pigs. The procedure: Since 5-OH—K (5-hydroxykynuramine) is a specific agonist at the 5-HT3 receptor, this test evaluates the potential 5-HT3 antagonistic effects.
Guinea pigs of both sexes, body weight±450 g, were killed by decapitation. Non-terminal, (distal 10 cm discarded), intact ileum segments, strips were cleansed, 4.5 cm long, were vertically suspended with a preload of 0.75 g in an 100 ml bath for isotonic recording; [(Displacement Transducer Control Unit; Janssen Scientific Instrument Division), HP7 DGDT-1000 (Hewlett-Packard CY)]. The organ bath was filled with a Tyrode solution, (37.5° C.), gassed with a mixture of 95% O2 and 5% CO2. After a stabilisation period of 20 minutes, methacholine (3.10^−6 M, 30 seconds contacttime) was added to the bathfluid in order to evaluate the potential maximal contraction, whereafter the bathfluid was refreshed, Subsequently, the serotonin agonist 5-OH-K (30 seconds contact time) was added (final concentration 3.10^−6 M) at intervals of 10 minutes, the bath fluid being refreshed 30 seconds after each addition. After reaching reproducible contractile effects, a single dose of the test compound was added to the bath fluid followed 5 minutes later by addition of 5-OH—K. After establishing the log concentration-responds curve of the test compound, IC50 values reducing the 5-OH—K induced effect by 50% were calculated by linear regression analysis.

Series [1] concerns guinea-pig ileum longitudinal muscle layer with myenteric plexus. Nature of the series: Guinea-pig ileum coaxial stimulation. The format is cell-based, Dunkin-Hartley guinea-pigs. To be noted: Cavia porcellus; guinea-pig ileum strips, electrical stimulation 0.1 Hz, 1 ms, submaximal; read-out: EC50 (concentration that stimulates the response to electrical stimulation by 50%). An excerpt: Dunkin-Hartley guinea-pigs of either sex (weighing between 600-900 g) were killed by decapitation. The ileum was removed and cleansed with warmed and oxygenated Krebs-Henseleit solution. Parts of the ileum (15 cm) were slipped over a glass pipette. The longitudinal muscle layer with myenteric plexus was removed by means of a cotton thread moistened with Krebs solution. Strips with a length of 8 cm were folded and these strips (4 cm) were mounted between two platinum electrodes (8 cm length, 0.5 cm apart). The strips were suspended with a preload of 1.5 g in 100 ml Krebs-Henseleit solution (37.5° C.), gassed with a mixture of 95% O2 and 5% CO2. The preparations were excited with single rectangular stimuli [1 ms; 0.1 Hz; submaximal response (current leading to 80% of maximal response), from a programmable stimulator (Janssen Scientific Instruments Division)]. Contractions were measured isometrically (Statham UC2, Janssen Scientific Instruments amplifier, Kipp BD-9 pen-recorder). During the stabilization period of 30 minutes, the strips were repeatedly stretched, in order to obtain a steady state tension of 1.5 g. Before starting the electrical stimulation, a cumulative concentration response curve of acetylcholine (3.10^−9, 10^−8, 3.10^−8 and 10^−7 M) was given. The bath fluid was replaced with fresh Krebs solution and the strips were allowed to stabilize for another 30 minutes. […]

Series [2] deals with guinea-pig colon ascendens. In words: Guinea-pig colon coaxial stimulation. The format is cell-based, Guinea-pigs. The following applies: Cavia porcellus; guinea-pig colon ascendens segments; read-out: EC50 (concentration that stimulates the maximal tone effect by 50%). As for the experimental part: Guinea-pigs of both sexes (body weight±450 g), were killed by decapitation. The colon ascendens was removed and rinsed, whereafter segments of approximately 3 cm length were prepared. These strips were suspended in an organ bath (100 ml) and connected to an isotonic transducer under a preload of 2 g; [Displacement Transducer Control Unit (Janssen Scientific Instrument Division); HP 7 DGDT 1000 (Hewlett-Packard)]. The organ bath was filled with a DeJalon solution (37.5° C.), gassed with a mixture of 95% O2 and 5% CO2. After a stabilization period of 20 minutes, methacholine 3.10^−6 M was added to the bathfluid in order to evaluate the potential maximal effect of the strip (contact time 30 seconds); thereafter, the bathfluid was refreshed. This was repeated at intervals of 10 minutes until a reproducible answer was obtained after addition of methacholine. Thereafter, the test compound was added for 10 minutes. Afterwards, without refreshing the bathfluid, cisapride 3.10^−7 M was added to evaluate a possible 5HT4 effect. When the contraction, caused by cisapride obtained a stable maximal level, methacholine 3.10^−6 M to evaluate a potential anti-cholinergic effect, was added to the bath fluid until a maximal contraction was obtained. The EC50 (i.e. the concentration that stimulates the maximal tone effect by 50%) of a compound, was calculated using linear regression analysis.

For series [3], the system named is MgSO4-induced intestinal lavage. Nature of the series: MgSO4 induced intestinal lavage in dogs. To be noted: Canis lupus familiaris, p.o., 1 hour before magnesium sulphate challenge. The format is in vivo, Beagle dogs. The procedure: Beagle dogs (of both sexes and varying in body weight, 16 hours deprived from food) were orally pretreated with (+)-norcisapride or solvent and challenged 1 hour later with an oral administration of magnesium sulphate (MgSO4.7H2O, 64g/l, 0.26M; 200 ml). The onset of MgSO4-induced intestinal lavage was assessed over a period of 4 hours after challenge. Liquid stools within 4 hours occured almost never in control animals treated with distilled water (2.5% false positives; n=200) and were considered to reflect significant acceleration of the MgSO4-induced intestinal lavage. Doses in the active dose range were given to five animals each, tested in separate experimental sessions including solvent-treated control animals. All-or-none criteria, based on the distribution of the results obtained in a large number of solvent-treated animals, were used to calculate ED50-values (effective dose) and 95% confidence limits according to Finney's iterative method (Finney, 1962).

Series [4] relates to α-adrenergic (norepinephrine challenge). In words: Apomorphine, tryptamine, norepinephrine (ATN) test in rats: norepinephrine challenge. The following applies: Rattus norvegicus, subcutaneous pretreatment. The format is in vivo. From the text:
(§1) The absence of central dopamine antagonistic and serotonin antagonistic activity of the subject compounds is evidenced by the experimental data obtained in the combined apomorphine (APO), tryptamine (TRY) and norepinephrine (NOR) test in rats. Said combined apomorphine, tryptamine and norepinephrine test is described in Arch. Int. Pharmacodyn., 227, 238-253 (1977) and provides an empirical evaluation of the relative specificity with which drugs may effect particular neurotransmitter systems centrally (CNS) as well as peripherally. […] Central dopamine antagonism is evaluated by challenging rats, subcutaneously pretreated with different doses of the test compound, with apomorphine which is a dopamine agonist. Next, serotonin antagonism is evaluated by challenging the same rats, subcutaneously pretreated with different doses of the test compound, with tryptamine which is an agonist at serotonin 5HT2-receptors. Both central and peripheral serotonin antagonism can be assessed in this test. Centrally acting serotonin antagonists are potential antipsychotic drugs, in particular when simultaneously displaying dopamine antagonism in the first part of this test. Finally, α-adrenergic antagonistic activity of the test compounds is evaluated by challenging the same rats, subcutaneously pretreated with different doses of the test compound, with norepinephrine which is an a-adrenergic agonist. […]

The subject of series [5] is central dopamine antagonism (apomorphine challenge). In words: Apomorphine, tryptamine, norepinephrine (ATN) test in rats: apomorphine challenge. The following applies: Rattus norvegicus, subcutaneous pretreatment, central dopamine antagonistic activity. The format is in vivo.
Text: as §1

Series [6] relates to serotonin 5HT2-receptors (tryptamine challenge). In words: Apomorphine, tryptamine, norepinephrine (ATN) test in rats: tryptamine challenge. To be noted: subcutaneous pretreatment. The format is in vivo.
Text: as §1

The conditions of series [7]: following oral administration; cited from earlier work.

pEC50, pIC50: −log10 of the molar value. Like-named read-outs stand apart in the source and are kept apart here.

Broadly, the pIC50 is the IC50 on a negative log10 scale, so that one unit is a factor of ten. Turning to `COc1cc(N)c(Cl)cc1C(=O)N[C@H]1CCNC[C@H]1OC` (stereo in doubt) [Compound 2, (−)-cis-4-amino-5-chloro-2-methoxy-N-(3-methoxy-4-piperidinyl)benzamide], the negative-log IC50 (pIC50) at 5-HT3 receptor was 6.35. Also, the figures for the pEC50 in series [1] and in series [2] were 5.30 and 4.96, respectively.

One may read the ED50 as the dose that gives a 50% effect, or the effect in half of the subjects. As to `COc1cc(N)c(Cl)cc1C(=O)N[C@@H]1CCNC[C@@H]1OC` (stereo in doubt) [Compound 1, (+)-cis-4-amino-5-chloro-2-methoxy-N-(3-methoxy-4-piperidinyl)benzamide], on 5-HT3 receptor, the pIC50 was 7.03. The ED50 in series [3] (liquid stools within 1 hour after challenge, read-out: ED50, onset of diarrhoea with 1 hour) is 0.15 mg/kg; in series [3] (liquid stools within 2 hours after challenge, read-out: ED50, onset of diarrhoea with 2 hours), 0.064 mg/kg; in series [3] (liquid stools within 3 hours after challenge, read-out: ED50, onset of diarrhoea with 3 hours), 0.049 mg/kg; in series [3] (liquid stools within 4 hours after challenge, read-out: ED50, onset of diarrhoea with 4 hours) it was 0.032 mg/kg; in series [4], more than 40 mg/kg; in series [5], more than 40 mg/kg. Also, the pEC50 is 6.22 in series [1] and 5.72 in series [2]. Moreover, the “ED50 TRY convulsions” value in series [6] (central serotonin antagonistic activity) is listed as more than 40 mg/kg. Besides, the “ED50 TRY hyperaemia” value in series [6] (peripheral serotonin antagonistic activity) is recorded as 4.7 mg/kg.

Regarding `COc1cc(N)c(Cl)cc1C(=O)NC1CCN(CCCOc2ccc(F)cc2)CC1OC` (stereo not drawn) [cisapride], in series [7], the “unchanged cisapride as share of urinary and fecal recovery” value was “less than 10%”.
